Assay results reported in ChEMBL document CHEMBL1201862, “PubChem BioAssay data set” (2004).
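These data come from cells grown in 96-well plates and exposed to compound for 48 hours at five concentrations. At the GI50, growth is halved.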 Calls of active or inactive are those of the source. No stated cut-off is given here; in the data, active = GI50 up to about 1.1 µM and inactive = higher.

How the values were obtained:
Assay in all cases: NCI anticancer screen, dose series, 48 h
786-0 = system: 786-0
Malme-3M = system: Malme-3M
SW-620 = system: SW-620
SN12C = system: SN12C
SK-MEL-28 = system: SK-MEL-28
MDA-N = system: MDA-N
SR = system: SR
RXF 393 = system: RXF 393
A549 = system: A549
RPMI-8226 = system: RPMI-8226
NCI-H522 = system: NCI-H522
CAKI-1 = system: CAKI-1
HT-29 = system: HT-29
NCI-H23 = system: NCI-H23
LOX IMVI = system: LOX IMVI
K562 = system: K562
SK-MEL-2 = system: SK-MEL-2
NCI-H460 = system: NCI-H460
OVCAR-5 = system: OVCAR-5
SNB-19 = system: SNB-19

Measured: GI50

CN1CCCC(OC(=O)c2cc3cc(CCl)ccc3oc2=O)C1 (stereo not given)
inactive: 786-0 23.8 µM | Malme-3M 17.6 µM | SW-620 22.7 µM | SN12C 20.9 µM | SK-MEL-28 19.5 µM | MDA-N 18.2 µM | SR 21.9 µM | RXF 393 23.7 µM | A549 29.8 µM | RPMI-8226 29.4 µM | NCI-H522 15.9 µM | CAKI-1 23.7 µM | HT-29 19.5 µM | NCI-H23 19.3 µM | LOX IMVI 17 µM | K562 27.9 µM | SK-MEL-2 17.6 µM | NCI-H460 19.1 µM | OVCAR-5 21.6 µM | SNB-19 27.7 µM

O=C1C=CC(=O)c2c(O)c(N(CCCl)CCCl)c(Cl)c(O)c21
inactive: 786-0 4.54 µM | Malme-3M 4.37 µM | SW-620 3.75 µM | SN12C > 6.68 µM | SK-MEL-28 > 5.6 µM | MDA-N 4.28 µM | SR 4.51 µM | RXF 393 > 5.2 µM | A549 > 9.71 µM | RPMI-8226 > 8.39 µM | NCI-H522 3.74 µM | CAKI-1 4.66 µM | HT-29 5.38 µM | NCI-H23 5.07 µM | LOX IMVI 4.49 µM | K562 4.79 µM | SK-MEL-2 4.78 µM | NCI-H460 5.02 µM | OVCAR-5 > 7.21 µM | SNB-19 > 10 µM
